Source: patent publication US8466193B2, “Selective inhibitors of histone deacetylase” (Pharmacyclics, Inc., priority 2008, dated 2013)

How the values were obtained:
[1] = Pharmacokinetic analysis in male rats, oral gavage; assay type: in vivo; conditions: CD IGS (Sprague-Dawley derived), rat, plasma, orally at 3 mg/kg, compounds administered in combination
Method: This study, performed in male rats with test compounds (Compound 303 and Compound 316), was designed to provide preliminary information on their pharmacokinetics. The test compounds were administered in combination by oral gavage.
The specifications for rats used on this study are as follows: • Strain: CD® IGS rats (Sprague-Dawley derived) • Source: Charles River Laboratories • Surgical modification for oral dosing: One portal vein cannula and one jugular vein cannula • Body weight range at dosing 350 to 375 g
The rats were acclimatized to laboratory conditions for at least 24 hours before dosing. The evening before dosing, food was withheld from the rats and was returned immediately following the 3-hour blood collection time point. Water was provided ad libitum. The rats were housed individually in translucent polycarbonate cages.
Test compounds were prepared as 3.0 mg/ml solutions (1% MC/0.4% Cr EL in WFI).
Rats were administered a single dose of test compound in combination by oral gavage. Dose volumes were adjusted based on body weight data collected immediately prior to dosing.
The dose volume was 1 ml/kg and the nominal dosage was 3 mg/kg.
Blood samples were collected at 5 minutes, 20 minutes, 1 hour, 3 hours, 6 hours, 9 hours, and 24 hours post-dosing from orally dosed rats. The samples were collected into plasma separator Microtainer tubes with anticoagulant (lithium heparin). Plasma samples were prepared by centrifugation (5 min at 5000×g), and at least 100 μL were transferred to storage tubes and frozen on dry ice. Samples were maintained at approximately −75 C until prepared for analysis.
Plasma samples were thawed and 75 uL aliquots were transferred to centrifuge tubes to which 10 μL aliquots of internal standard solution (0.5 μg/mL) were added. The samples were not diluted with blank plasma prior to further processing. Soluble proteins were precipitated by the addition of 300 μL of methanol, followed by centrifugation (20 min at 16,000×g). The samples were evaporated to dryness and reconstituted in 100 μL of water containing 0.2% formic acid and 10% methanol. All samples were loaded onto an autosampler maintained at 6° C. and evaluated for concentrations of test compound using LC-MS/MS. lasma concentration data were evaluated using the computer program WinNonlin (Professional Edition, Pharsight Corporation, version 5.01). […]
Pan HDAC inhibitor 3-((dimethylamino)methyl)-N-(2-(4-(hydroxycarbamoyl)phenoxy)ethyl)benzofuran-2-carboxamide was added to the cassette to serve as a standard since the pharmacokinetics of this compound have been determined previously in rats. The UC's determined for rats administered Compound 303 and Compound 316 orally at 3 mg/kg were 1.42, and 5.36 μg·h/mL, respectively. […]

[2] = system: Jurkat cells; experiment: Cell proliferation assay, growth inhibition by Alamar Blue; assay type: cell-based; conditions: Homo sapiens, 72 h, Jurkat cells treated with compound for 3 days
Method: Cell lines were obtained from DSMZ (Braunschweig, Germany) or ATCC (Manassas, Va.). Cells were grown in RPMI 1640 with 10% fetal bovine serum in a 5% CO2/air incubator at 37° C. Thapsigargin and BAPTA-AM were from Calbiochem (San Diego, Calif.). 3-((dimethylamino)methyl)-N-(2-(4-(hydroxycarbamoyl)phenoxy)ethyl)benzofuran-2-carboxamide is a broad-spectrum HDAC inhibitor which was synthesized as previously described. Other analogs with varying degrees of specificity towards the HDAC isoforms were synthesized as described herein.
Tumor cell lines and human umbilical vein endothelial cells (HUVEC) were cultured for at least two doubling times, and growth was monitored at the end of compound exposure using an Alamar Blue™ (Biosource, Camarillo, Calif.) fluorometric cell proliferation assay as recommended by the manufacturer. Compounds were assayed in triplicate wells in 96-well plates. The concentration required to inhibit cell growth by 50% (GI50) and 95% confidence intervals were estimated from nonlinear regression using a 4-parameter logistic equation. The effect of HDAC8 selective inhibitor compounds on cell proliferation in Jurkat cells was measured. Apoptosis was measured by Annexin-V flow cytommetry. Growth inhibition was measured by Alamar Blue assay. Cells were treated with compound for 3 days.

[3] = biological target: T1, HDAC8 (Homo sapiens, UniProt Q9BY41); experiment: Histone deacetylase activity, continuous trypsin-coupled assay; assay type: biochemical; conditions: 15 minutes preincubation; substrate acetyl-Gly-Ala-(N-acetyl-Lys)-AMC
T1 sequence (Q9BY41 1-377): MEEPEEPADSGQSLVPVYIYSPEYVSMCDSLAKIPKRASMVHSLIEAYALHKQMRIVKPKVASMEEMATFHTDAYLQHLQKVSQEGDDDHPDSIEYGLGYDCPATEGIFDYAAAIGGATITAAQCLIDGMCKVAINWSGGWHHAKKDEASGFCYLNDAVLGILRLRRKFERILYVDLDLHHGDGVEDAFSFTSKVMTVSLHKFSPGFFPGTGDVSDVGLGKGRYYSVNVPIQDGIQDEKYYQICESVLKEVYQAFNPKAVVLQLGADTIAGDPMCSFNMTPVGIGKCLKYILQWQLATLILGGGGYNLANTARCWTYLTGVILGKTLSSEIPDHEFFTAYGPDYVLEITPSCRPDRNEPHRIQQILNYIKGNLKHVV
Method: (§1) HDAC activity was measured using a continuous trypsin-coupled assay that has been described in detail previously (US 20070281934; Schultz et. al., Biochemistry, 43 (34), 11083-11091, 2004; Kim et al. (2006), Methods Mol. Biol., 325:273-283). For inhibitor characterization, measurements were performed in a reaction volume of 100 μL using 96-well assay plates in a fluorescence plate reader. For each isozyme, the HDAC protein in reaction buffer (50 mM HEPES, 100 mM KCl, 0.001% Tween-20, 5% DMSO, pH 7.4, supplemented with bovine serum albumin at concentrations of 0-0.05%, was mixed with inhibitor at various concentrations and allowed to incubate for 15 minutes. Trypsin was added to a final concentration of 50 nM, and acetyl-Gly-Ala-(N-acetyl-Lys)-AMC was added to a final concentration of 25-100 μM to initiate the reaction. After a 30 minute lag time, the fluorescence was measured over a 30 minute time frame using an excitation wavelength of 355 nm and a detection wavelength of 460 nm. The increase in fluorescence with time was used as the measure of the reaction rate. Inhibition constants Ki(app) were obtained using the program BatchKi (Biokin, Pullman, Wash.).

[4] = biological target: T2, HDAC6 (Homo sapiens, UniProt Q9UBN7); experiment: as above; assay type: biochemical; conditions: 15 minutes preincubation; substrate acetyl-Gly-Ala-(N-acetyl-Lys)-AMC
T2 sequence (Q9UBN7 1-1215): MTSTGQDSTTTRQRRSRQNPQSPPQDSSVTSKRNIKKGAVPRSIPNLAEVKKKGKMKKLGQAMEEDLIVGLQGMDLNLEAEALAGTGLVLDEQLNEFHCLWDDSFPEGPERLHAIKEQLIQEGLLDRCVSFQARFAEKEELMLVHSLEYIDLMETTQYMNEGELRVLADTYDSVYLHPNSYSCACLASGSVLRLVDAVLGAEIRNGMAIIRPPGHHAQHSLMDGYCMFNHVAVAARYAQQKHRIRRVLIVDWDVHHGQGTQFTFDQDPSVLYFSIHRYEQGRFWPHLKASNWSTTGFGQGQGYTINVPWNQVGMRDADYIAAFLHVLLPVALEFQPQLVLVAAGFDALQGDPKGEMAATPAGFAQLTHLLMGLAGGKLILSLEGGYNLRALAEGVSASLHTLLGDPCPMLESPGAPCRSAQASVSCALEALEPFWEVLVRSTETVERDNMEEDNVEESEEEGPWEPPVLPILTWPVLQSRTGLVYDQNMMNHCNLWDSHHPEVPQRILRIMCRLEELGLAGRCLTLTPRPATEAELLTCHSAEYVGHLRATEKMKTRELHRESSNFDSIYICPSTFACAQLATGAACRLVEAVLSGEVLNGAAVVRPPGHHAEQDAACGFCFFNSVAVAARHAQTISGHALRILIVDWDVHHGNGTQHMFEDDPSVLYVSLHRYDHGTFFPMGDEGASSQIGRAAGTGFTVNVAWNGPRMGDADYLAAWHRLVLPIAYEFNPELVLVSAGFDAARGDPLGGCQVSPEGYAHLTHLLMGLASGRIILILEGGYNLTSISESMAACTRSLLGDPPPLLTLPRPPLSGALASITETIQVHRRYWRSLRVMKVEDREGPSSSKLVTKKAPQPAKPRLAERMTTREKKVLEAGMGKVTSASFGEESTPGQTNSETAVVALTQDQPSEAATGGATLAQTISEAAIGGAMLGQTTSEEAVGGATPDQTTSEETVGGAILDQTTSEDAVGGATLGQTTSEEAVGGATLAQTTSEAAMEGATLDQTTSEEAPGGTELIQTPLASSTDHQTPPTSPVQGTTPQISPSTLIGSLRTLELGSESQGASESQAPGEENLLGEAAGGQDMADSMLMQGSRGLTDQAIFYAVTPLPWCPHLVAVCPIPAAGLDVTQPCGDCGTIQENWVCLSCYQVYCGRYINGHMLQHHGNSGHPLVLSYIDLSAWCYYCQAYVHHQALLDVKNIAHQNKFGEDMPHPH
Method: as §1

[5] = biological target: HDAC1 (Homo sapiens, UniProt Q13547); experiment: as above; assay type: biochemical; conditions: 15 minutes preincubation; substrate acetyl-Gly-Ala-(N-acetyl-Lys)-AMC
HDAC1, sequence (Q13547 whole entry, species assumed): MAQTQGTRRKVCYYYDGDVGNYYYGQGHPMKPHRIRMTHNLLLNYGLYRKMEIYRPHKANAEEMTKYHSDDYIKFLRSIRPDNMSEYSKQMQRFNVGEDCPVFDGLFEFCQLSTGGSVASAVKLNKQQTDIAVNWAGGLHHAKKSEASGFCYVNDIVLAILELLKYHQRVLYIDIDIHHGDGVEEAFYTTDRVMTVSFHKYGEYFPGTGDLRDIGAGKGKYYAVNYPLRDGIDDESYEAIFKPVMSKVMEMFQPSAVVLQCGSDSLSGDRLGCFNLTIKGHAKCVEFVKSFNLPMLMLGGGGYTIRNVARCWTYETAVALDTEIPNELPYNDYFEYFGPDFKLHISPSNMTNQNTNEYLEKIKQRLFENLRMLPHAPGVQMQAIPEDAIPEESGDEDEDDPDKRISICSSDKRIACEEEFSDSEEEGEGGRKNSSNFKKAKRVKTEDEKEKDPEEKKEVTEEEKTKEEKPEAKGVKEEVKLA
Method: as §1

[6] = biological target: HDAC3 (Homo sapiens, UniProt O15379); experiment: as above; assay type: biochemical; conditions: 15 minutes preincubation; substrate acetyl-Gly-Ala-(N-acetyl-Lys)-AMC
HDAC3, sequence (O15379 whole entry, species assumed): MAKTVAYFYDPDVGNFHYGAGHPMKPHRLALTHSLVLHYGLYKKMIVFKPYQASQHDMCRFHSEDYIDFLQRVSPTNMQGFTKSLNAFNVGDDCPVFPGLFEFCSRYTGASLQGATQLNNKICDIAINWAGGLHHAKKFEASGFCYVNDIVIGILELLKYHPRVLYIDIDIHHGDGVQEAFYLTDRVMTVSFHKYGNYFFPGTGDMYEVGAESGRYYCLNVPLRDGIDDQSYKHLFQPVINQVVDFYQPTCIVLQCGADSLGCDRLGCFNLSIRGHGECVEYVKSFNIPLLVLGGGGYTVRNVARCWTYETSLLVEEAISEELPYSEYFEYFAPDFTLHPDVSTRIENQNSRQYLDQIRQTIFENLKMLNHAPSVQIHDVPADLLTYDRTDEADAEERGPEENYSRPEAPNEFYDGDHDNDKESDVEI
HDAC3, sequence (Q9Y618 395-489 partner limits assumed, species assumed): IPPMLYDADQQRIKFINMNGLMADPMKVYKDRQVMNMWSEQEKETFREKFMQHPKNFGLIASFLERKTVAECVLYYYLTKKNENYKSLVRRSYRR
Method: as §1

[7] = biological target: T3, HDAC10 (Homo sapiens, UniProt Q969S8); experiment: as above; assay type: biochemical; conditions: 15 minutes preincubation; substrate acetyl-Gly-Ala-(N-acetyl-Lys)-AMC
T3 sequence (Q969S8 1-669): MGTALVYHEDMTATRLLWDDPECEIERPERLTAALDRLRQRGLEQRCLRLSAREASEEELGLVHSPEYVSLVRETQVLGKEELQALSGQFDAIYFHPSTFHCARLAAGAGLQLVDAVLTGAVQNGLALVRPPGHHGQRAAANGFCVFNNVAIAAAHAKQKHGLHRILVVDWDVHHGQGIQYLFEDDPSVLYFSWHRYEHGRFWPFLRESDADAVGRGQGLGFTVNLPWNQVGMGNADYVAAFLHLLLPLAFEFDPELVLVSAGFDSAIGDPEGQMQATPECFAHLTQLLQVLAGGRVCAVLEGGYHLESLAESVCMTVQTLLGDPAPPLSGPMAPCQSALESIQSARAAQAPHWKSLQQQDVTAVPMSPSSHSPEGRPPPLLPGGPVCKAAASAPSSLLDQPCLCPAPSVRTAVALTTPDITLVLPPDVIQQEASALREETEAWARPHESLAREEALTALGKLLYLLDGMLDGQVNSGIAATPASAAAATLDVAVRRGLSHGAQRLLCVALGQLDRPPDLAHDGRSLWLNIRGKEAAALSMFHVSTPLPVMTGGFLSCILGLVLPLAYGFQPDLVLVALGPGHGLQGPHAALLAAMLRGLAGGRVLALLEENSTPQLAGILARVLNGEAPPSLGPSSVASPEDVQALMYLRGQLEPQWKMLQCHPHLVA
Method: as §1

[8] = biological target: HDAC2 (Homo sapiens, UniProt Q92769); experiment: as above; assay type: biochemical; conditions: 15 minutes preincubation; substrate acetyl-Gly-Ala-(N-acetyl-Lys)-AMC
HDAC2, sequence (Q92769 whole entry, species assumed): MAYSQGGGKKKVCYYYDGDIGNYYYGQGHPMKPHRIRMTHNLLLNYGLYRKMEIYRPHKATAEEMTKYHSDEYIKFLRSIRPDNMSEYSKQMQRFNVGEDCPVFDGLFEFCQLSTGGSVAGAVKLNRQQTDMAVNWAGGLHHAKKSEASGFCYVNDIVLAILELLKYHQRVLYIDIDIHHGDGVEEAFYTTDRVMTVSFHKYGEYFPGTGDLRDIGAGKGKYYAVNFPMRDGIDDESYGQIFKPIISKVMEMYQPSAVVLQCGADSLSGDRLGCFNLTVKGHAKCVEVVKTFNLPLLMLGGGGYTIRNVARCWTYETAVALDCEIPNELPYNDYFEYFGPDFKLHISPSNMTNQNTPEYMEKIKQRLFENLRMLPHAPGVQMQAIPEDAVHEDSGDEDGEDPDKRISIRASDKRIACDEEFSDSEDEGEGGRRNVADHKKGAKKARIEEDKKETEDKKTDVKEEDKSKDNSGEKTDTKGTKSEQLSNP
Method: as §1

Row | AUC [1] [ng·h/mL] | Cmax [1] [ng/mL] | GI50 [2] [µM] | IC50 [3] [µM] | IC50 [4] [µM] | IC50 [5] [µM] | IC50 [6] [µM] | IC50 [7] [µM] | IC50 [8] [µM] | SMILES
1 | 1420 | 310 | 3.5 |  |  |  |  |  |  | O=C(NO)c1ccc2ccn(CCCc3ccccc3)c2c1 [Compound 303, N-hydroxy-1-(3-phenyl-propyl)-1H-indole-6-carboxamide]
2 |  |  | 7.4 | < 1 | 1 to 10 | > 10 | > 10 | > 10 | > 10 | CN(C)Cc1cccc(OCCn2ccc3ccc(C(=O)NO)cc32)c1 [Compound 324, N-hydroxy-1-(2-(3-(dimethylaminomethyl)phenoxy)ethyl)-1H-indole-6-carboxamide]
3 |  |  | 13.4 | < 1 | 1 to 10 | > 10 | > 10 | > 10 | > 10 | CN(C)Cc1ccc(OCCn2ccc3ccc(C(=O)NO)cc32)cc1 [Compound 325, N-hydroxy-1-(2-(4-(dimethylaminomethyl)phenoxy)ethyl)-1H-indole-6-carboxamide]
4 |  |  | 4.95 | < 1 | 1 to 10 | > 10 | > 10 | > 10 | > 10 | O=C(NO)c1ccc2ccn(CCOc3cccc(CN4CCOCC4)c3)c2c1 [Compound 327, N-hydroxy-1-(2-(3-(morpholin-4-ylmethyl)phenoxy)ethyl)-1H-indole-6-carboxamide]
5 |  |  | 20.7 | < 1 | > 10 | > 10 | > 10 | > 10 | > 10 | O=C(Cn1ccc2ccc(C(=O)NO)cc21)Nc1ccccc1 [Compound 329, N-hydroxy-1-(2-oxo-2-(phenylamino)ethyl)-1H-indole-6-carboxamide]
